In US20160130224A1, “Novel Pyrrole Derivatives” (priority 2013, published 2016):

Assays:
[1] = target: T1, pneumolysin (Streptococcus pneumoniae serotype 2, UniProt Q04IN8); experiment: Inhibition of the haemolytic activity of pneumolysin (sheep erythrocytes); type: cell-based; details: pneumolysin at LD100, sheep erythrocytes, 37° C., read-out: IC50
Description: The basis of this assay is that when pneumolysin is added to red blood cells, it induces their lysis and leads to the release of haemoglobin. In the presence of an inhibitory compound, pneumolysin-induced lysis is abolished, the red blood cells pellet at the bottom of the microtitre plate well and the supernatant is clear. However, if the compound is not inhibitory, the red blood cells are lysed and haemoglobin is released into the supernatant.
Test compound solutions (typically at 5 mM in DMSO) were diluted 1:1 in 100% DMSO. The compounds were then two-fold serially diluted in 100% DMSO across 11 wells of 96-well round-bottomed microtitre plate. PBS was then added to all the wells to achieve a 1:10 dilution of the compound in PBS. Pneumolysin was then added at a concentration equal to its LD100. Plates were then incubated at 37° C. for 30-40 min. After the incubation period, an equal volume of 4% (v/v) sheep erythrocyte suspension was added to each well and the plates incubated again at 37° C., for at least 30 min. Controls with only erythrocytes in PBS (control for no lysis) or erythrocytes plus pneumolysin (control for lysis) were prepared following the same procedure. Following the incubation with the erythrocytes, the Absorbance at 595 nm of each well was measured and the data used to determine the IC50 for each test compound. The IC50 values were determined using non-linear regression curve fitting. For that, the Log of the concentrations of the test compound was plotted against the percentage inhibition, estimated from the A595 values, followed by fitting a Hill Slope to the data.

[2] = target: T1, pneumolysin; experiment: Inhibition of pneumolysin-induced lactate dehydrogenase (LDH) release from A549 human lung epithelial cells; type: cell-based
Description: Pneumolysin induces the release of lactate dehydrogenase (LDH) from human monocytes and lung epithelial cells: a phenomenon that is indicative of plasma membrane damage or rupture [Infect. Immun. (2002) 70 1017-1022].
Human lung epithelial cells (A549) were seeded in flat-bottomed 96-well tissue culture plates and grown in RPMI 1640 medium supplemented with Glutamine, at 37° C., 5% CO2, for 24 h.
Before use, the cells were washed with PBS. Test compound dilutions were incubated with pneumolysin as described in Section A, then transferred to wells containing the human lung epithelial cells and the plates were incubated at 37° C., 5% CO2, for 30 min. The following controls were included on the plate (1) Negative controls, called low control (PBS only) to measure the natural release of LDH from the cells in culture, (2) positive controls (1% (v/v) Triton-X in PBS) to measure the maximum release of LDH from the cells (3) Pneumolysin solution only to measure pneumolysin-induced LDH release, (4) Test compound solution to assess the toxicity of the compound alone. […] Absorbance at 490 nm and 655 nm was then measured. The percentage of LDH release induced by pneumolysin in the presence and absence of test compounds was plotted against the Log of the concentration of the compound and the IC50 was determined, as described above in the inhibition of haemolysis assay, Section A.

[3] = target: T1, pneumolysin; experiment: Ex vivo meningitis assay: effect of pneumolysin on ciliary function of cultured ependymal cells; type: cell-based; details: rat ependymal cells; compound 1.56 μM; recorded over 30 min; FIG. 2
From the text: The ependymal ciliated cells line the cerebral ventricles of the brain and the central canal of the spinal cord and are covered with cilia responsible for the circulation of the cerebrospinal fluid (CSF) around the central nervous system. This layer acts as a selective brain barrier to and from the cerebrospinal fluid and plays a role in controlling the CSF volume. To study if the inhibitors prevent the damage caused by pneumolysin on the ependymal layer, a rat ex vivo model of meningitis was used. This model is based on culturing and differentiating ciliated ependymal cells from neonate rat brains, which recreate the in vivo situation, where cells lining the brain ventricles, are exposed to S. pneumoniae and its toxic products.
Ependymal cell cultures were prepared by the method previously described [Microb. Pathog. (1999) 27 303-309]. Tissue culture trays were coated with bovine fibronectin and incubated at 37° C. in 5% (v/v) CO2 for 2 h before use. […]
After approximately two weeks, the cells were fully ciliated and ready for experiments. […] Beating cilia were recorded before and after exposure over 30 min, with a digital high-speed video camera at a rate of 500 frames/s. The recorded video sequences were played back at reduced frame rates and the ciliary beat frequency (CBF) was determined by the following equation: […]

[4] = Solubility testing in PBS or 0.9% saline; type: physicochemical; details: result in words
Description: Solubility studies were performed by charging a vial with 5-10 mg of compound followed by the 40 addition of PBS solution or 0.9% saline to achieve a concentration of 100 mg/ml. If solubility was not observed the solution was diluted to concentrations of 50 mg/ml, 25 mg/ml and 4 mg/ml consecutively until complete solubility was observed.

[5] = Chemical stability assessment in PBS at 37.5° C. (HPLC); type: physicochemical; details: buffer, pH 6.2, read-out: Chemical stability at pH 6.2-7.2 (t1/2) (converted)
Description: (§1) Stability studies were carried out by dissolving 1-2 mg of compound in DMSO (1 mL) followed by addition of 0.4 mL of the resulting solution to stirred PBS solution (9.6 mL) at 37.5° C. A sample (ca. 0.5 mL) was immediately taken for HPLC analysis. Further samples were then taken for analysis at various timepoints thereafter. Half-lives were determined from the decrease in concentration of compound with respect to time.
as §1, with “performed” for “carried out”, “ml)” for “mL)”, “ml” for “mL”, “PBS” for “PBS solution”, “(˜0.5 ml)” for “(ca. 0.5 mL)”, “time-points” for “timepoints”

T1 sequence (Q04IN8 whole entry): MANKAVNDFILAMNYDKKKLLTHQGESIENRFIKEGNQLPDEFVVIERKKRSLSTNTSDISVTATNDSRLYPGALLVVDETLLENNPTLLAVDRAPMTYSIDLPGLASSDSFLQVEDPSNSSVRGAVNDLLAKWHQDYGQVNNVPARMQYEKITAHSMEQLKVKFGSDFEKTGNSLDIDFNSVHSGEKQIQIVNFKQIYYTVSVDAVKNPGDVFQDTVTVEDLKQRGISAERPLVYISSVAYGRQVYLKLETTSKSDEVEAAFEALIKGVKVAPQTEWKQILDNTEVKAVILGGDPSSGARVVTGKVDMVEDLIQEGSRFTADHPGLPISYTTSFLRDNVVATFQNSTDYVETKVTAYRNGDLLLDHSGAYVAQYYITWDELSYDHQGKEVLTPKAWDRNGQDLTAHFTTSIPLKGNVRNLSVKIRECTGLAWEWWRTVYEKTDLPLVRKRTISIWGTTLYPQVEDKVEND

`COc1ccc(-n2c(C(=O)N(C)C)c(O)c(O)c2C(=O)N(C)C)cc1` [UL1-005, 3,4-Dihydroxy-1-(4-methoxyphenyl)-N^2,N^2,N^5,N^5-tetramethyl-1H-pyrrole-2,5-dicarboxamide] showed an IC50 ([1]; Table 1) of 200 nM, an IC50 ([1]; Table 2) of 200 nM and an IC50 [2] of under 490 nM. For the same compound, the “Ciliary beating frequency (CBF) in the presence of pneumolysin” value [3] was “No significant loss of the CBF”, the “Solubility in 0.9% (w/v) saline, pH 6.5 or PBS pH 7.2” value [4] was “Not soluble” and the half-life [5] was under 30 min.
